US11090292B2, “Compositions and methods of use of an inappetance-controlling compound” (Aratana Therapeutics, Inc., priority 2012, dated 2021)

Columns and labels:
cortisol [1] = assay: Example 4: serum cortisol concentration; assay type: in vivo, Beagle dogs; conditions: approximately 0.5 h post treatment, days 1, 4 and 7
Procedure: A controlled, seven-day study was performed to assess the impact of different capromorelin-dosing regimens on the production of IGF-1, GH, and cortisol. The different capromorelin-dosing regimens were also assessed for the impact on food intake and changes in body mass.
[…] were divided into one of three treatment groups, with one negative control group and two active treatment groups. Each of the three treatment groups included three males and three females. The first group received a placebo formulation (i.e., deionized water) twice per day, via oral gavage. The second group received a once-daily dose of the capromorelin composition at a concentration of 3 mg/kg, via oral gavage. The third group received a twice-daily dose of the capromorelin composition at a concentration of 3 mg/kg, via oral gavage.
During the ten day study period, on an at least once-daily basis, each of the dogs was monitored for clinical observations, mortality, moribundity, body mass, acceptability/palatability, and food consumption. Serum samples were taken to measure capromorelin concentration, GH concentration, IGF-1 concentration, and cortisol concentration. Serum samples were taken on days 1, 2, 4, and 7 at −15 minutes (pre-dose), immediately prior to dosing (0 minutes) and 30, 45, 60, 90, 120, 240, 360, and/or 480 minutes post dosing. […]

cortisol [2] = assay: Example 5: serum cortisol; assay type: in vivo, Beagle dogs; conditions: Groups 2-4; mitigated by Day 4, further reduced by Day 7
Procedure: In order to further refine the dosing regimen that would provide an appropriate blood profile of capromorelin and desired results from the perspective of increased food intake and weight gain, an additional series of experiments were conducted. In these experiments, twenty-four adult (male and female) Beagle dogs weighing approximately 9 to 13 kilograms were randomly divided into four groups. Group 1 received a placebo formulation, without any active compound, two times per day; Group 2 received a composition comprising 3 mg/kg of body weight of capromorelin one time per day; Group 3 received a composition comprising 4.5 mg/kg of body weight of capromorelin one time per day; and Group 4 received a composition comprising 3 mg/kg of body weight of capromorelin two times per day. […]
In these experiments, the animals were orally administered the flavored formulation at approximately 8:00 AM and, for Group 4 only, again at 6:00 PM. […] Food consumption was calculated and recorded on Days −7 through Day 7. Baseline food consumption was calculated for each individual dog as the average number of grams of food consumed on Days −3, −2, and −1. The study period food consumption was calculated for each individual dog as the average of Days 1 through 7. […]

Question: With `CN1N=C2CCN(C(=O)[C@@H](COCc3ccccc3)NC(=O)C(C)(C)N)C[C@@]2(Cc2ccccc2)C1=O.O=C(O)C(O)C(O)C(=O)O` [capromorelin] as the compound, how does the “cortisol concentrations in the serum relative to deionized water” value (cortisol [1]) read?
Answer: Its value is “increased”.

Question: What about the “cortisol in the serum” value (cortisol [2]) of the same compound?
Answer: The value was “initial increase in cortisol in the serum on Day 1”.
